Data taken from patent publication US12077503B2, “Substituted cyclic amides and their use as herbicides” (FMC CORPORATION, priority 2015, dated 2024).

Tests used:
Format in all cases: in vivo
[1] = test system: barnyardgrass (Echinochloa crus-galli); assay: Test G Pre-Emergence Protocol; settings: Echinochloa crus-galli, pre-emergence, 312 h, evaluated after 13 days; for pest or weed control at 15.625 g/ha: 15.625 g ai/ha; for pest or weed control at 15.625 g/ha / pest or weed control at 250 g/ha: read-out: Barnyardgrass damage rating (100=total damage to plant; 0=no damage to plant); for pest or weed control at 62.5 g/ha: 62.5 g ai/ha, 100=total damage to plant, 0=no damage to plant, read-out: Barnyardgrass damage rating; for pest or weed control at 250 g/ha: 250 g ai/ha
Method in brief: (§1)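 Scores are visual damage ratings from 0 (no damage) to 100 (total plant kill), taken 13 days after treatment. Compound was sprayed one day post-sowing at 15.625, 62.5 or 250 g/ha in 50:50 acetone/water with 0.5% Tween 20.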

corn (Zea mays) [2] = assay: Test G Pre-Emergence Protocol; settings: Zea mays, pre-emergence, 312 h, evaluated after 13 days; for plant injury at 15.625 g/ha: 15.625 g ai/ha; for plant injury at 15.625 g/ha / plant injury at 250 g/ha: read-out: Corn damage rating (100=total damage to plant; 0=no damage to plant); for plant injury at 62.5 g/ha: 62.5 g ai/ha, 100=total damage to plant, 0=no damage to plant, read-out: Corn damage rating; for plant injury at 250 g/ha: 250 g ai/ha
Method in brief: as §1

[3] = test system: giant foxtail (Setaria faberi); assay: Test G Pre-Emergence Protocol; settings: Setaria faberi, pre-emergence, 312 h, evaluated after 13 days; for pest or weed control at 15.625 g/ha: 15.625 g ai/ha; for pest or weed control at 15.625 g/ha / pest or weed control at 250 g/ha: read-out: Foxtail, Giant damage rating (100=total damage to plant; 0=no damage to plant); for pest or weed control at 62.5 g/ha: 62.5 g ai/ha, 100=total damage to plant, 0=no damage to plant, read-out: Foxtail, Giant damage rating; for pest or weed control at 250 g/ha: 250 g ai/ha
Method in brief: as §1

[4] = test system: ivy-leaved morning glory (Ipomoea hederacea); assay: Test G Pre-Emergence Protocol; settings: Ipomoea, pre-emergence, 312 h, evaluated after 13 days; for pest or weed control at 62.5 g/ha: 62.5 g ai/ha, 100=total damage to plant, 0=no damage to plant, read-out: Morningglory, Ivy-leaved damage rating; for pest or weed control at 250 g/ha: 250 g ai/ha
Method in brief: as §1

[5] = test system: redroot pigweed (Amaranthus retroflexus); assay: Test G Pre-Emergence Protocol; settings: Amaranthus retroflexus, pre-emergence, 312 h, evaluated after 13 days; for pest or weed control at 15.625 g/ha: 15.625 g ai/ha; for pest or weed control at 15.625 g/ha / pest or weed control at 250 g/ha: read-out: Pigweed, Redroot damage rating (100=total damage to plant; 0=no damage to plant); for pest or weed control at 62.5 g/ha: 62.5 g ai/ha, 100=total damage to plant, 0=no damage to plant, read-out: Pigweed, Redroot damage rating; for pest or weed control at 250 g/ha: 250 g ai/ha
Method in brief: as §1

[6] = test system: velvetleaf (Abutilon theophrasti); assay: Test G Pre-Emergence Protocol; settings: Abutilon theophrasti, pre-emergence, 312 h, evaluated after 13 days; for pest or weed control at 15.625 g/ha: 15.625 g ai/ha; for pest or weed control at 15.625 g/ha / pest or weed control at 250 g/ha: read-out: Velvetleaf damage rating (100=total damage to plant; 0=no damage to plant); for pest or weed control at 62.5 g/ha: 62.5 g ai/ha, 100=total damage to plant, 0=no damage to plant, read-out: Velvetleaf damage rating; for pest or weed control at 250 g/ha: 250 g ai/ha
Method in brief: as §1

[7] = test system: barnyardgrass (Echinochloa crus-galli); assay: Test G Post-Emergence Protocol; settings: Echinochloa crus-galli, post-emergence, 312 h, read-out: Barnyardgrass damage rating; for pest or weed control at 15.625 g/ha: 15.625 g ai/ha, evaluated after 13 days (100=total damage to plant; 0=no damage to plant); for pest or weed control at 62.5 g/ha: 62.5 g ai/ha; for pest or weed control at 62.5 g/ha / pest or weed control at 250 g/ha: evaluated after 13 days, 100=total damage to plant, 0=no damage to plant; for pest or weed control at 250 g/ha: 250 g ai/ha
Method in brief: (§2)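 Foliar application was made 8 days after sowing, using an aqueous spray of the active in acetone/water (50:50) with 0.5% Tween 20, at doses of 15.625, 62.5 or 250 g/ha. Injury was assessed 13 days later, where 100 meant the plant was fully damaged.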

corn (Zea mays) [8] = assay: Test G Post-Emergence Protocol; settings: Zea mays, post-emergence, 312 h, read-out: Corn damage rating; for plant injury at 15.625 g/ha: 15.625 g ai/ha, evaluated after 13 days (100=total damage to plant; 0=no damage to plant); for plant injury at 62.5 g/ha: 62.5 g ai/ha; for plant injury at 62.5 g/ha / plant injury at 250 g/ha: evaluated after 13 days, 100=total damage to plant, 0=no damage to plant; for plant injury at 250 g/ha: 250 g ai/ha
Method in brief: as §2

[9] = test system: giant foxtail (Setaria faberi); assay: Test G Post-Emergence Protocol; settings: Setaria faberi, post-emergence, 312 h, read-out: Foxtail, Giant damage rating; for pest or weed control at 15.625 g/ha: 15.625 g ai/ha, evaluated after 13 days (100=total damage to plant; 0=no damage to plant); for pest or weed control at 62.5 g/ha: 62.5 g ai/ha; for pest or weed control at 62.5 g/ha / pest or weed control at 250 g/ha: evaluated after 13 days, 100=total damage to plant, 0=no damage to plant; for pest or weed control at 250 g/ha: 250 g ai/ha
Method in brief: as §2

[10] = test system: ivy-leaved morning glory (Ipomoea hederacea); assay: Test G Post-Emergence Protocol; settings: Ipomoea, post-emergence, 312 h, read-out: Morningglory, Ivy-leaved damage rating; for pest or weed control at 15.625 g/ha: 15.625 g ai/ha, evaluated after 13 days (100=total damage to plant; 0=no damage to plant); for pest or weed control at 62.5 g/ha: 62.5 g ai/ha; for pest or weed control at 62.5 g/ha / pest or weed control at 250 g/ha: evaluated after 13 days, 100=total damage to plant, 0=no damage to plant; for pest or weed control at 250 g/ha: 250 g ai/ha
Method in brief: as §2

[11] = test system: redroot pigweed (Amaranthus retroflexus); assay: Test G Post-Emergence Protocol; settings: Amaranthus retroflexus, post-emergence, 312 h, read-out: Pigweed, Redroot damage rating; for pest or weed control at 15.625 g/ha: 15.625 g ai/ha, evaluated after 13 days (100=total damage to plant; 0=no damage to plant); for pest or weed control at 62.5 g/ha: 62.5 g ai/ha; for pest or weed control at 62.5 g/ha / pest or weed control at 250 g/ha: evaluated after 13 days, 100=total damage to plant, 0=no damage to plant; for pest or weed control at 250 g/ha: 250 g ai/ha
Method in brief: as §2

[12] = test system: velvetleaf (Abutilon theophrasti); assay: Test G Post-Emergence Protocol; settings: Abutilon theophrasti, post-emergence, 312 h, read-out: Velvetleaf damage rating; for pest or weed control at 15.625 g/ha: 15.625 g ai/ha, evaluated after 13 days (100=total damage to plant; 0=no damage to plant); for pest or weed control at 62.5 g/ha: 62.5 g ai/ha; for pest or weed control at 62.5 g/ha / pest or weed control at 250 g/ha: evaluated after 13 days, 100=total damage to plant, 0=no damage to plant; for pest or weed control at 250 g/ha: 250 g ai/ha
Method in brief: as §2

[13] = read-out: Morningglory, Ivy-leaved damage rating (100=total damage to plant; 0=no damage to plant)

Structure (SMILES)	pest or weed control at 15.625 g/ha [1] [%]	pest or weed control at 62.5 g/ha [1] [%]	pest or weed control at 250 g/ha [1] [%]	plant injury at 15.625 g/ha (corn (Zea mays) [2]) [%]	plant injury at 62.5 g/ha (corn (Zea mays) [2]) [%]	plant injury at 250 g/ha (corn (Zea mays) [2]) [%]	pest or weed control at 15.625 g/ha [3] [%]	pest or weed control at 62.5 g/ha [3] [%]	pest or weed control at 250 g/ha [3] [%]	pest or weed control at 62.5 g/ha [4] [%]	pest or weed control at 250 g/ha [4, 13] [%]	pest or weed control at 15.625 g/ha [5] [%]	pest or weed control at 62.5 g/ha [5] [%]	pest or weed control at 250 g/ha [5] [%]	pest or weed control at 15.625 g/ha [6] [%]	pest or weed control at 62.5 g/ha [6] [%]	pest or weed control at 250 g/ha [6] [%]	pest or weed control at 15.625 g/ha [7] [%]	pest or weed control at 62.5 g/ha [7] [%]	pest or weed control at 250 g/ha [7] [%]	other results
CCOc1ccc(C2CN(C)C(=O)C2C(=O)Nc2cccc(F)c2F)cc1F (centres unmarked) [Compound 1717]	0	40	90	0	0	0	60	90	90	0	0	0	10	20	0	10	0	0	60	70	pest or weed control at 15.625 g/ha ([4]; 15.625 g ai/ha, read-out: Morningglory, Ivy-leaved damage rating (100=total damage to plant; 0=no damage to plant)): 0%; plant injury at 15.625 g/ha (corn (Zea mays) [8]): 0%; plant injury at 62.5 g/ha (corn (Zea mays) [8]): 0%; plant injury at 250 g/ha (corn (Zea mays) [8]): 10%; pest or weed control at 15.625 g/ha [9]: 30%; pest or weed control at 62.5 g/ha [9]: 70%; pest or weed control at 250 g/ha [9]: 80%; pest or weed control at 15.625 g/ha [10]: 0%; pest or weed control at 62.5 g/ha [10]: 0%; pest or weed control at 250 g/ha [10]: 0%; pest or weed control at 15.625 g/ha [11]: 0%; pest or weed control at 62.5 g/ha [11]: 0%; pest or weed control at 250 g/ha [11]: 0%; pest or weed control at 15.625 g/ha [12]: 0%; pest or weed control at 62.5 g/ha [12]: 0%; pest or weed control at 250 g/ha [12]: 0%
CCOc1cc(C2CN(C)C(=O)C2C(=O)Nc2cccc(F)c2F)ccc1OC (centres unmarked) [Compound 1719]	30	70	90	0	10	60	70	90	90	0	0	0	0	20	0	0	0	0	60	80	plant injury at 15.625 g/ha (corn (Zea mays) [8]): 0%; plant injury at 62.5 g/ha (corn (Zea mays) [8]): 0%; plant injury at 250 g/ha (corn (Zea mays) [8]): 60%; pest or weed control at 15.625 g/ha [9]: 60%; pest or weed control at 62.5 g/ha [9]: 80%; pest or weed control at 250 g/ha [9]: 80%; pest or weed control at 15.625 g/ha [10]: 0%; pest or weed control at 62.5 g/ha [10]: 10%; pest or weed control at 250 g/ha [10]: 20%; pest or weed control at 15.625 g/ha [11]: 0%; pest or weed control at 62.5 g/ha [11]: 0%; pest or weed control at 250 g/ha [11]: 0%; pest or weed control at 15.625 g/ha [12]: 0%; pest or weed control at 62.5 g/ha [12]: 0%; pest or weed control at 250 g/ha [12]: 0%
